Starred links: 1 amine or outer side, 2 acyl side, 3 side chain; linkers in the order of their positions; H or OH if unused. Non-standard residues stand in square brackets, D forms with d. Residues, ends and D or L forms follow the SMILES beside them. Groups on a side chain read outwards from the residue. *: point of attachment. C18 diacid = O=C(O)CCCCCCCCCCCCCCCCC(=O)*; γGlu = O=C(O)[C@H](CCC(=O)[*:2])N[*:1]; Stearoyl = CCCCCCCCCCCCCCCCCC(=O)*; Palmitoyl = CCCCCCCCCCCCCCCC(=O)*; αMeF = C[C@](N)(Cc1ccccc1)C(=O)O; Myristoyl = CCCCCCCCCCCCCC(=O)*; αMeS = C[C@](N)(CO)C(=O)O; PEG2 = NCCOCCOCCC(=O)O; AEEA = NCCOCCOCC(=O)O; Aib = CC(C)(N)C(=O)O
What was measured:
[1] = molecular target: human glucagon receptor (hGCGR) (Homo sapiens, UniProt P47871); assay: cAMP production (HTRF) in CHO cells expressing hGCGR; type: cell-based; parameters: expressed in transfected cells; settings: Table 6, peptides modified at position 17; cAMP in CHO hGCGR cells; geometric mean; read-out: hGluc-R EC50
human glucagon receptor (hGCGR), sequence (P47871 26-477): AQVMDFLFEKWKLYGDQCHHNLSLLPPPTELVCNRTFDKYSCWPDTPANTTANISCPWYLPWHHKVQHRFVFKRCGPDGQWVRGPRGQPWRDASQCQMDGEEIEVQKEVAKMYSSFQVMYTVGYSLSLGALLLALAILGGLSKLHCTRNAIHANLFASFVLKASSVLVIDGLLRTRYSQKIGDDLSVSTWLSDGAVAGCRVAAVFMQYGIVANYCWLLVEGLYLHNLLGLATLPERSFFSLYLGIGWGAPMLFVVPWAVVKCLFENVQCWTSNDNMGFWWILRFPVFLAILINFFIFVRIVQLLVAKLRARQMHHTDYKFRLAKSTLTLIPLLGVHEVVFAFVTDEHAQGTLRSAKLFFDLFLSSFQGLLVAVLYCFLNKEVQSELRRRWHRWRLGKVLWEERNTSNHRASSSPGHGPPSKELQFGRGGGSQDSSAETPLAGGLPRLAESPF
Outline: (§1)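 Potency values represent EC50 from 4-parameter logistic curves of HTRF % Delta F signal. Receptor-expressing CHO cells (hGCGR 2×10^5 cells/mL, hGLP-1R 1×10^5 cells/mL) were exposed for 30 min at room temperature before two-step cAMP detection.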

[2] = molecular target: human GLP-1 receptor (hGLP-1R) (Homo sapiens, UniProt P43220); assay: cAMP production (HTRF) in CHO cells expressing hGLP-1R; type: cell-based; parameters: expressed in transfected cells; settings: for % Relative Potency Ratio: Table 6, % GLP-1R activity relative to GLP-1 / % GlucR activity relative to glucagon; for EC50: Table 6, peptides modified at position 17, cAMP in CHO hGLP-1R cells, geometric mean, read-out: hGLP-1R EC50
human GLP-1 receptor (hGLP-1R), sequence (P43220 24-463): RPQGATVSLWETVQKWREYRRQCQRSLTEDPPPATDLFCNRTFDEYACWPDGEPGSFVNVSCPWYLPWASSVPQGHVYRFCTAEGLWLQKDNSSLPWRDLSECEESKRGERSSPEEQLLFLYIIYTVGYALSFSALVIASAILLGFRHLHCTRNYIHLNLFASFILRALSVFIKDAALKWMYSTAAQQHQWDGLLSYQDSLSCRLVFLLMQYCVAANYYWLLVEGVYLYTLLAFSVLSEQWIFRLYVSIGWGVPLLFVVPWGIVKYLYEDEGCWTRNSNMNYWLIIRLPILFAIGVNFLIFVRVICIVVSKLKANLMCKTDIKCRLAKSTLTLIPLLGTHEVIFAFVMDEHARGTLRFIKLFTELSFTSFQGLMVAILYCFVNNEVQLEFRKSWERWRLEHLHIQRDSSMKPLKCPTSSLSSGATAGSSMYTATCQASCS
Outline: as §1

Compound	EC50 [1]	% Relative Potency Ratio [2]	EC50 [2]
CCCCCCCCCCCCCC(=O)N[C@@H](CCC(=O)N[C@@H](CCC(=O)NCCOCCOCCC(=O)NCCOCCOCCC(=O)NCCCC[C@H](NC(=O)[C@H](CO)NC(=O)[C@H](CC(=O)O)NC(=O)[C@H](CC(C)C)NC(=O)[C@@H](NC(=O)[C@H](CCCCN)NC(=O)[C@H](CO)NC(=O)[C@@H](NC(=O)[C@H](CC(=O)O)NC(=O)[C@H](CO)NC(=O)[C@@H](NC(=O)[C@](C)(Cc1ccccc1)NC(=O)[C@H](CO)NC(=O)CNC(=O)[C@H](CCC(N)=O)NC(=O)[C@](C)(CO)NC(=O)[C@@H](N)Cc1c[nH]cn1)[C@@H](C)O)C(C)C)[C@@H](C)CC)C(=O)N[C@@H](C)C(=O)N[C@@H](C)C(=O)N[C@@H](CCC(N)=O)C(=O)N[C@@H](CC(=O)O)C(=O)N[C@@](C)(Cc1ccccc1)C(=O)N[C@H](C(=O)N[C@@H](CCC(N)=O)C(=O)NC(C)(C)C(=O)N[C@H](C(=O)N[C@H](C(=O)N[C@@H](CC(N)=O)C(=O)N[C@H](C(N)=O)[C@@H](C)O)[C@@H](C)CC)[C@@H](C)CC)C(C)C)C(=O)O)C(=O)O [Peptide 132] (H-H[αMeS]QGS[αMeF]TSDVSKILDSK([PEG2-PEG2-γGlu-γGlu-Myristoyl])AAQD[αMeF]VQ[Aib]IINT-NH2; N-terminus assumed)	0.0343 nM	71.5	
CCCCCCCCCCCCCCCCCC(=O)N[C@@H](CCC(=O)NCCOCCOCCC(=O)NCCOCCOCCC(=O)NCCCC[C@H](NC(=O)[C@H](CO)NC(=O)[C@H](CC(=O)O)NC(=O)[C@H](CC(C)C)NC(=O)[C@@H](NC(=O)[C@H](CCCCN)NC(=O)[C@H](CO)NC(=O)[C@@H](NC(=O)[C@H](CC(=O)O)NC(=O)[C@H](CO)NC(=O)[C@@H](NC(=O)[C@](C)(Cc1ccccc1)NC(=O)[C@H](CO)NC(=O)CNC(=O)[C@H](CCC(N)=O)NC(=O)[C@](C)(CO)NC(=O)[C@@H](N)Cc1c[nH]cn1)[C@@H](C)O)C(C)C)[C@@H](C)CC)C(=O)N[C@@H](C)C(=O)N[C@@H](C)C(=O)N[C@@H](CCC(N)=O)C(=O)N[C@@H](CC(=O)O)C(=O)N[C@@](C)(Cc1ccccc1)C(=O)N[C@H](C(=O)N[C@@H](CCC(N)=O)C(=O)NC(C)(C)C(=O)N[C@H](C(=O)N[C@H](C(=O)N[C@@H](CC(N)=O)C(=O)N[C@H](C(N)=O)[C@@H](C)O)[C@@H](C)CC)[C@@H](C)CC)C(C)C)C(=O)O [Peptide 133] (H-H[αMeS]QGS[αMeF]TSDVSKILDSK([PEG2-PEG2-γGlu-Stearoyl])AAQD[αMeF]VQ[Aib]IINT-NH2; N-terminus assumed)	0.03 nM	55.9	0.00106 nM
CCCCCCCCCCCCCCCC(=O)N[C@@H](CCC(=O)NCCOCCOCCC(=O)NCCOCCOCCC(=O)NCCCC[C@H](NC(=O)[C@H](CO)NC(=O)[C@H](CC(=O)O)NC(=O)[C@H](CC(C)C)NC(=O)[C@@H](NC(=O)[C@H](CCCCN)NC(=O)[C@H](CO)NC(=O)[C@@H](NC(=O)[C@H](CC(=O)O)NC(=O)[C@H](CO)NC(=O)[C@@H](NC(=O)[C@](C)(Cc1ccccc1)NC(=O)[C@H](CO)NC(=O)CNC(=O)[C@H](CCC(N)=O)NC(=O)[C@](C)(CO)NC(=O)[C@@H](N)Cc1c[nH]cn1)[C@@H](C)O)C(C)C)[C@@H](C)CC)C(=O)N[C@@H](C)C(=O)N[C@@H](C)C(=O)N[C@@H](CCC(N)=O)C(=O)N[C@@H](CC(=O)O)C(=O)N[C@@](C)(Cc1ccccc1)C(=O)N[C@H](C(=O)N[C@@H](CCC(N)=O)C(=O)NC(C)(C)C(=O)N[C@H](C(=O)N[C@H](C(=O)N[C@@H](CC(N)=O)C(=O)N[C@H](C(N)=O)[C@@H](C)O)[C@@H](C)CC)[C@@H](C)CC)C(C)C)C(=O)O [Peptide 134] (H-H[αMeS]QGS[αMeF]TSDVSKILDSK([PEG2-PEG2-γGlu-Palmitoyl])AAQD[αMeF]VQ[Aib]IINT-NH2; N-terminus assumed)	0.015 nM	50.1	
CCCCCCCCCCCCCC(=O)N[C@@H](CCC(=O)NCCOCCOCCC(=O)NCCOCCOCCC(=O)NCCCC[C@H](NC(=O)[C@H](CO)NC(=O)[C@H](CC(=O)O)NC(=O)[C@H](CC(C)C)NC(=O)[C@@H](NC(=O)[C@H](CCCCN)NC(=O)[C@H](CO)NC(=O)[C@@H](NC(=O)[C@H](CC(=O)O)NC(=O)[C@H](CO)NC(=O)[C@@H](NC(=O)[C@](C)(Cc1ccccc1)NC(=O)[C@H](CO)NC(=O)CNC(=O)[C@H](CCC(N)=O)NC(=O)[C@](C)(CO)NC(=O)[C@@H](N)Cc1c[nH]cn1)[C@@H](C)O)C(C)C)[C@@H](C)CC)C(=O)N[C@@H](C)C(=O)N[C@@H](C)C(=O)N[C@@H](CCC(N)=O)C(=O)N[C@@H](CC(=O)O)C(=O)N[C@@](C)(Cc1ccccc1)C(=O)N[C@H](C(=O)N[C@@H](CCC(N)=O)C(=O)NC(C)(C)C(=O)N[C@H](C(=O)N[C@H](C(=O)N[C@@H](CC(N)=O)C(=O)N[C@H](C(N)=O)[C@@H](C)O)[C@@H](C)CC)[C@@H](C)CC)C(C)C)C(=O)O [Peptide 135] (H-H[αMeS]QGS[αMeF]TSDVSKILDSK([PEG2-PEG2-γGlu-Myristoyl])AAQD[αMeF]VQ[Aib]IINT-NH2; N-terminus assumed)	0.015 nM	72.8	
CC(C)C[C@H](NC(=O)[C@H](CC(C)C)NC(=O)[C@H](Cc1c[nH]c2ccccc12)NC(=O)[C@H](CCCNC(=N)N)NC(=O)[C@@H](NC(=O)[C@H](Cc1ccccc1)NC(=O)[C@H](CC(=O)O)NC(=O)[C@H](CCC(N)=O)NC(=O)[C@H](C)NC(=O)[C@H](CCCNC(=N)N)NC(=O)[C@H](CCCCNC(=O)CC[C@H](NC(=O)CC[C@H](NC(=O)COCCOCCNC(=O)COCCOCCNC(=O)CC[C@H](NC(=O)CC[C@H](NC(=O)CCCCCCCCCCCCCCCCC(=O)O)C(=O)O)C(=O)O)C(=O)O)C(=O)O)NC(=O)[C@H](CO)NC(=O)[C@H](CC(=O)O)NC(=O)[C@H](CC(C)C)NC(=O)[C@](C)(Cc1ccccc1)NC(=O)[C@H](CCCCN)NC(=O)[C@H](CO)NC(=O)[C@@H](NC(=O)[C@H](CC(=O)O)NC(=O)[C@H](CO)NC(=O)[C@@H](NC(=O)[C@H](Cc1ccccc1)NC(=O)[C@@H](NC(=O)CNC(=O)[C@H](CCC(N)=O)NC(=O)C(C)(C)NC(=O)[C@@H](N)Cc1c[nH]cn1)[C@@H](C)O)[C@@H](C)O)C(C)C)C(C)C)C(=O)N[C@@H](CCC(=O)O)C(=O)NCC(=O)NC(C)(C)C(=O)O [Peptide 137] (H-H[Aib]QGTFTSDVSK[αMeF]LDSK([γGlu-γGlu-AEEA-AEEA-γGlu-γGlu-C18 diacid])RAQDFVRWLLEG[Aib]-OH; N-terminus assumed)	0.268 nM	3.7	0.143 nM

Source: patent publication US20250353891A1 (MEDIMMUNE LIMITED, priority 2022, published 2025)
